Consider 22 compounds from PubChem BioAssay AID248 (DTP/NCI, 2004).

“And” between values parts separate entries of the source, which are not always exact repeats. Equal entries are not always repeated. Inconclusive results and toxic doses are left out.

The test system of this test is L1210 leukemia ip in BDF1 mice, survival T/C. Description: NCI In Vivo Anticancer Drug Screen. Data for tumor model L1210 Leukemia (intraperitoneal) in B6D2F1 (BDF1) mice. The conditions noted are these: endpoint: mean survival time, higher = longer survival. In short, it runs like this: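 Ratio derived from survival: compound-dosed mice over vehicle-dosed mice, all bearing a transplantable tumor.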

Setting [1] is: dose: 100.0 mg/kg/injection, schedule: Q04DX003 (ip), vehicle: saline.
The mark [2] stands for this setting: dose: 200.0 mg/kg/injection, schedule: Q04DX003 (ip), vehicle: saline.
Where [3] appears, read: dose: 100.0 mg/kg/injection, schedule: Q01DX001 (ip), vehicle: saline.
Where [4] appears, read: dose: 200.0 mg/kg/injection, schedule: Q01DX001 (ip), vehicle: saline.
[5] abbreviates: dose: 400.0 mg/kg/injection, schedule: Q01DX001 (ip), vehicle: saline.
Setting [6] is: dose: 100.0 mg/kg/injection, schedule: Q01DX001 (ip), vehicle: carboxymethylcellulose (CMC).
Where [7] appears, read: dose: 200.0 mg/kg/injection, schedule: Q01DX001 (ip), vehicle: carboxymethylcellulose (CMC).
Where [8] appears, read: dose: 100.0 mg/kg/injection, schedule: Q01DX009 (ip), vehicle: Klucel (hydroxypropylcellulose) (HPC).
Setting [9] is: dose: 100.0 mg/kg/injection, schedule: Q04DX003 (ip), vehicle: Klucel (hydroxypropylcellulose) (HPC).
Where [10] appears, read: dose: 200.0 mg/kg/injection, schedule: Q01DX009 (ip), vehicle: Klucel (hydroxypropylcellulose) (HPC).
Where [11] appears, read: dose: 200.0 mg/kg/injection, schedule: Q04DX003 (ip), vehicle: Klucel (hydroxypropylcellulose) (HPC).
Setting [12] is: dose: 400.0 mg/kg/injection, schedule: Q01DX009 (ip), vehicle: Klucel (hydroxypropylcellulose) (HPC).
[13] abbreviates: dose: 400.0 mg/kg/injection, schedule: Q04DX003 (ip), vehicle: Klucel (hydroxypropylcellulose) (HPC).
The mark [14] stands for this setting: dose: 100.0 mg/kg/injection, schedule: Q04DX003 (ip), vehicle: saline with Tween-80.
[15] abbreviates: dose: 200.0 mg/kg/injection, schedule: Q04DX003 (ip), vehicle: saline with Tween-80.
Where [16] appears, read: dose: 400.0 mg/kg/injection, schedule: Q04DX003 (ip), vehicle: saline with Tween-80.

Take `Cc1c2cccc(Sc3ccccc3)c2c2c3c(cccc13)[S+](c1ccccc1)C2` (stereo not given): the T/C (dose: 1.56 mg/kg/injection, schedule: Q01DX009 (ip), vehicle: saline) is 104 % of control; the T/C (dose: 3.12 mg/kg/injection, schedule: Q01DX009 (ip), vehicle: saline) was 101 % of control; the T/C (dose: 6.25 mg/kg/injection, schedule: Q01DX009 (ip), vehicle: saline) was 105 % of control; the T/C (dose: 12.5 mg/kg/injection, schedule: Q01DX001 (ip), vehicle: saline with Tween-80) was 97 % of control; the T/C (dose: 12.5 mg/kg/injection, schedule: Q01DX001 (ip), vehicle: saline) was 100 % of control; the T/C (dose: 12.5 mg/kg/injection, schedule: Q01DX009 (ip), vehicle: saline) is 91 % of control. The T/C by setting is: (dose: 25.0 mg/kg/injection, schedule: Q01DX001 (ip), vehicle: saline) 93 % of control; (dose: 50.0 mg/kg/injection, schedule: Q01DX001 (ip), vehicle: saline with Tween-80) 95 % of control; (dose: 50.0 mg/kg/injection, schedule: Q01DX001 (ip), vehicle: saline) 86 % of control.
For `CCS(=O)(=O)c1nc2ccccc2[nH]1`, the T/C runs as follows: (dose: 100.0 mg/kg/injection, schedule: Q04DX002 (ip), vehicle: Klucel (hydroxypropylcellulose) (HPC)) 97 % of control; (dose: 200.0 mg/kg/injection, schedule: Q04DX002 (ip), vehicle: Klucel (hydroxypropylcellulose) (HPC)) 108 % of control; (dose: 400.0 mg/kg/injection, schedule: Q04DX002 (ip), vehicle: Klucel (hydroxypropylcellulose) (HPC)) 108 % of control.
For `ClP1(N2CCCCC2)=NP(Cl)(N2CCCCC2)=NP(Cl)(N2CCCCC2)=NP(Cl)(N2CCCCC2)=N1` (stereo not given), the T/C is, setting by setting: under setting [1], 105 % of control; under setting [2], 94 % of control; (dose: 400.0 mg/kg/injection, schedule: Q04DX003 (ip), vehicle: saline) 94 % of control.
For the compound `CN(C)c1ccc(C=Nc2cc([N+](=O)[O-])ccc2O)cc1`, the T/C by setting is: under setting [3], 96 % of control; under setting [4], 92 % of control; under setting [5], 91 % of control.
Take `O=C(c1ccc([N+](=O)[O-])cc1)c1ccn[nH]1`: the T/C is, setting by setting: (dose: 100.0 mg/kg/injection, schedule: Q01DX001 (ip), vehicle: Klucel (hydroxypropylcellulose) (HPC)) 103 % of control; (dose: 200.0 mg/kg/injection, schedule: Q01DX001 (ip), vehicle: Klucel (hydroxypropylcellulose) (HPC)) 99 % of control; (dose: 400.0 mg/kg/injection, schedule: Q01DX001 (ip), vehicle: Klucel (hydroxypropylcellulose) (HPC)) 94 % of control.
In the case of `N#CC1(N(O)C(=O)Nc2ccccc2Cl)CCCCC1`, the T/C reads like this: under setting [6], 100 % of control; under setting [7], 96 % of control; (dose: 400.0 mg/kg/injection, schedule: Q01DX001 (ip), vehicle: carboxymethylcellulose (CMC)) 91 % of control.
For `CN=C(NC)c1ccc(NC(=O)c2cc(Cl)cc(C(=O)Nc3ccc(C(=NC)NC)cc3)c2)cc1`, the T/C is 88 % of control (dose: 1.88 mg/kg/injection, schedule: Q01DX Z (ip), vehicle: saline); 94 % of control (dose: 3.75 mg/kg/injection, schedule: Q01DX Z (ip), vehicle: saline); 93 % of control (dose: 7.5 mg/kg/injection, schedule: Q01DX Z (ip), vehicle: saline); 104 % of control and 115 % of control (dose: 15.0 mg/kg/injection, schedule: Q01DX Z (ip), vehicle: saline).
For `O=c1cc(CBr)c2ccccc2[nH]1`, the T/C was 100 % of control (dose: 5.0 mg/kg/injection, schedule: Q01DX001 (ip), vehicle: saline); 105 % of control (dose: 6.25 mg/kg/injection, schedule: Q01DX009 (ip), vehicle: saline with Tween-80); 94 % of control (dose: 10.0 mg/kg/injection, schedule: Q01DX001 (ip), vehicle: saline); 90 % of control (dose: 12.5 mg/kg/injection, schedule: Q01DX009 (ip), vehicle: saline with Tween-80); 100 % of control (dose: 20.0 mg/kg/injection, schedule: Q01DX001 (ip), vehicle: saline); 103 % of control (dose: 40.0 mg/kg/injection, schedule: Q01DX001 (ip), vehicle: saline). For the same compound, the T/C (dose: 80.0 mg/kg/injection, schedule: Q01DX001 (ip), vehicle: saline) was 97 % of control.
Take `CC(=O)Oc1cc(O)c2c(c1)OC(C)(C)CC2=O`: the T/C was 98 % of control under setting [8]; 93 % of control under setting [9]; 98 % of control under setting [10]; 100 % of control under setting [11]; 96 % of control under setting [12]; 97 % of control under setting [13].
For `O=[N+]([O-])c1ncn(C2CCCCO2)c1Br` (stereo not given), the T/C is 99 % of control (dose: 50.0 mg/kg/injection, schedule: Q04DX003 (ip), vehicle: gum acacia); 100 % of control (dose: 100.0 mg/kg/injection, schedule: Q04DX003 (ip), vehicle: gum acacia); 100 % of control (dose: 200.0 mg/kg/injection, schedule: Q04DX003 (ip), vehicle: gum acacia).
For `O=C(Nc1ccc(F)cc1)OCCOc1ccc([N+](=O)[O-])cc1`, the T/C under setting [8] is 96 % of control, the T/C under setting [10] is 107 % of control and the T/C under setting [12] was 93 % of control.
As to `CC1(C)CCC(C)(C)c2cc(O)ccc21`, the T/C under setting [3] is 94 % of control; the T/C under setting [9] was 92 % of control; the T/C under setting [4] is 96 % of control; the T/C under setting [11] is 92 % of control; the T/C under setting [5] is 89 % of control; the T/C under setting [13] is 87 % of control.
Turning to `CC1(C)CNC(=O)O1`, the T/C reads like this: under setting [3], 108 % of control; under setting [4], 111 % of control; under setting [5], 100 % of control.
As to `CC(/C=N/N(C)C)=N\N(C)C`, the T/C under setting [1] is 92 % of control and the T/C under setting [2] was 102 % of control.
Turning to `COc1ccc2c(c1)OC(C)(C)C(c1ccccc1)C2c1ccc(OCCN2CCCC2)cc1` (stereo not given), the T/C under setting [14] is 119 % of control, the T/C under setting [15] is 94 % of control and the T/C under setting [16] was 95 % of control.
Regarding `C=CC[Se]CC=C`, the T/C by setting is: under setting [9], 106 % of control; under setting [11], 121 % of control.
Take `C/C=C/Sc1ccccc1C(=O)O`: the T/C (dose: 50.0 mg/kg/injection, schedule: Q01DX001 (ip), vehicle: carboxymethylcellulose (CMC)) was 104 % of control; the T/C under setting [6] was 100 % of control; the T/C under setting [7] is 104 % of control.
On to `CCOC(=O)c1c[nH]c2cc(OCC3CC3)c(OCC3CC3)cc2c1=O`, for which the T/C (dose: 100.0 mg/kg/injection, schedule: Q01DX009 (ip), vehicle: saline with Tween-80) is 92 % of control.
As to `c1ccc(C2OC(c3ccccc3)C(c3ccccc3)OC2c2ccccc2)cc1` (stereo not given), the T/C by setting is: under setting [8], 92 % of control; under setting [10], 97 % of control; under setting [12], 92 % of control.
As for `COc1ccc(CCNC(=O)/C=C\C(=O)O)cc1OC`, the T/C is, setting by setting: under setting [14], 100 % of control; under setting [15], 98 % of control; under setting [16], 96 % of control.
Take `O=NN(CCCl)C(=O)Nc1ccc(Oc2ccc(NC(=O)N(CCCl)N=O)cc2)cc1`: the T/C is, setting by setting: (dose: 375.0 mg/kg/injection, schedule: Q01DX001 (ip), vehicle: carboxymethylcellulose (CMC)) 192 % of control; (dose: 500.0 mg/kg/injection, schedule: Q01DX001 (ip), vehicle: carboxymethylcellulose (CMC)) 198 % of control; (dose: 750.0 mg/kg/injection, schedule: Q01DX001 (ip), vehicle: carboxymethylcellulose (CMC)) 190 % of control; (dose: 1000.0 mg/kg/injection, schedule: Q01DX001 (ip), vehicle: carboxymethylcellulose (CMC)) 154 % of control and 246 % of control; (dose: 1250.0 mg/kg/injection, schedule: Q01DX001 (ip), vehicle: carboxymethylcellulose (CMC)) 104 % of control; (dose: 1500.0 mg/kg/injection, schedule: Q01DX001 (ip), vehicle: carboxymethylcellulose (CMC)) 122 % of control. Also, the T/C (dose: 2000.0 mg/kg/injection, schedule: Q01DX001 (ip), vehicle: carboxymethylcellulose (CMC)) is 86 % of control.
With `CC(C)=CCN(CC=C(C)C)CCC(O)(Cc1ccccc1)c1ccccc1` (stereo not given), the T/C reads like this: (dose: 50.0 mg/kg/injection, schedule: Q01DX009 (ip), vehicle: Klucel (hydroxypropylcellulose) (HPC)) 88 % of control; under setting [8], 109 % of control; under setting [9], 97 % of control; under setting [10], 90 % of control; under setting [11], 95 % of control.
